In ChEMBL document CHEMBL3885861, “Open TG-GATES”:

Species on record: Rattus norvegicus
Assay: Open TG-GATES - Regimen: Daily Repeat
Type: toxicity, organism-based, Sprague-Dawley
Set-up: regimen Daily Repeat, gender Male, age 6 weeks
Conditions: in vivo, po, 0 mg/kg, route gavage, dose level Control; for APTT / Bas / Eos / Fbg / Hb / Ht / Lym / MCH / MCHC / MCV / Mono / Neu / PT / Plat / RBC / Ret / WBC: tissue Blood; for KIDNEY_L / KIDNEY_R / KIDNEY_TOTAL: tissue Kidney; for LIVER: tissue Liver; for A/G / ALP / ALT / AST / BUN / CRE / Ca / Cl / DBIL / GLC / IP / K / LDH / Na / PL / RALB / TBIL / TC / TG / TP / gamma-GTP: tissue Plasma

O=C(N[C@H](CO)[C@H](O)c1ccc([N+](=O)[O-])cc1)C(Cl)Cl [CHLORAMPHENICOL]
TERMINAL_BW (72 h, time 3 day): 250.4 g | APTT (72 h, time 3 day): 17.1 s | Bas (72 h, time 3 day): 0% | Eos (72 h, time 3 day): 1.2% | Fbg (72 h, time 3 day): 270.4 mg/dL | Hb (72 h, time 3 day): 13.1 g/dL | Ht (72 h, time 3 day): 40.4% | Lym (72 h, time 3 day): 71.6% | MCH (72 h, time 3 day): 21.5 pg | MCHC (72 h, time 3 day): 32.4% | MCV (72 h, time 3 day): 66.2 fL | Mono (72 h, time 3 day): 3% | Neu (72 h, time 3 day): 23.8% | PT (72 h, time 3 day): 14.4 s | Plat (72 h, time 3 day): 109.8 x10_4/uL | RBC (72 h, time 3 day): 611.2 x10_4/ul | Ret (72 h, time 3 day): 7% | WBC (72 h, time 3 day): 78.3 x10_2/uL | KIDNEY_L (72 h, time 3 day): 1.1 g | KIDNEY_R (72 h, time 3 day): 1.1 g | KIDNEY_TOTAL (72 h, time 3 day): 2.2 g | LIVER (72 h, time 3 day): 12.4 g | A/G (72 h, time 3 day): 0.9 | ALP (72 h, time 3 day): 1702 IU/L | ALT (72 h, time 3 day): 44 IU/L | AST (72 h, time 3 day): 66.4 IU/L | BUN (72 h, time 3 day): 15 mg/dL | CRE (72 h, time 3 day): 0.2 mg/dL | Ca (72 h, time 3 day): 11.3 mg/dL | Cl (72 h, time 3 day): 105 meq/L | DBIL (72 h, time 3 day): 0.022 mg/dL | GLC (72 h, time 3 day): 186.8 mg/dL | IP (72 h, time 3 day): 7.1 mg/dL | K (72 h, time 3 day): 4.1 meq/L | LDH (72 h, time 3 day): 80.8 IU/L | Na (72 h, time 3 day): 140.4 meq/L | PL (72 h, time 3 day): 154 mg/dL | RALB (72 h, time 3 day): 2.7 g/dL | TBIL (72 h, time 3 day): 0.048 mg/dL | TC (72 h, time 3 day): 78.4 mg/dL | TG (72 h, time 3 day): 127.6 mg/dL | TP (72 h, time 3 day): 5.7 g/dL | gamma-GTP (72 h, time 3 day): 1.2 IU/L | TERMINAL_BW ([…], time 7 day): 289.7 g | TERMINAL_BW ([…], time 14 day): 334.8 g | TERMINAL_BW ([…], time 28 day): 425.6 g | APTT ([…], time 7 day): 17.6 s | Bas ([…], time 7 day): 0% | Eos ([…], time 7 day): 0.8% | Fbg ([…], time 7 day): 274.8 mg/dL | Hb ([…], time 7 day): 13.7 g/dL | Ht ([…], time 7 day): 42% | Lym ([…], time 7 day): 77.8% | MCH ([…], time 7 day): 21.4 pg | MCHC ([…], time 7 day): 32.6% | MCV ([…], time 7 day): 65.7 fL | Mono ([…], time 7 day): 2.6% | Neu ([…], time 7 day): 18.2% | PT ([…], time 7 day): 14.1 s | Plat ([…], time 7 day): 131.7 x10_4/uL | RBC ([…], time 7 day): 640.6 x10_4/ul | Ret ([…], time 7 day): 5.6% | WBC ([…], time 7 day): 92.1 x10_2/uL | APTT ([…], time 14 day): 16.9 s | Bas ([…], time 14 day): 0% | Eos ([…], time 14 day): 1% | Fbg ([…], time 14 day): 272 mg/dL | Hb ([…], time 14 day): 14.6 g/dL | Ht ([…], time 14 day): 44.5% | Lym ([…], time 14 day): 78.4% | MCH ([…], time 14 day): 20.3 pg | MCHC ([…], time 14 day): 32.6% | MCV ([…], time 14 day): 62.3 fL | Mono ([…], time 14 day): 2.2% | Neu ([…], time 14 day): 18% | PT ([…], time 14 day): 14.8 s | Plat ([…], time 14 day): 122.4 x10_4/uL | RBC ([…], time 14 day): 715.4 x10_4/ul | Ret ([…], time 14 day): 3.8% | WBC ([…], time 14 day): 90.5 x10_2/uL | APTT ([…], time 28 day): 18.3 s | Bas ([…], time 28 day): 0% | Eos ([…], time 28 day): 1.6% | Fbg ([…], time 28 day): 259 mg/dL | Hb ([…], time 28 day): 15.5 g/dL | Ht ([…], time 28 day): 45.1% | Lym ([…], time 28 day): 77.4% | MCH ([…], time 28 day): 20 pg | MCHC ([…], time 28 day): 34.3% | MCV ([…], time 28 day): 58.3 fL | Mono ([…], time 28 day): 1.8% | Neu ([…], time 28 day): 18.4% | PT ([…], time 28 day): 14.8 s | Plat ([…], time 28 day): 93.9 x10_4/uL | RBC ([…], time 28 day): 773 x10_4/ul | Ret ([…], time 28 day): 2.2% | WBC ([…], time 28 day): 79.4 x10_2/uL | KIDNEY_L ([…], time 7 day): 1.2 g | KIDNEY_R ([…], time 7 day): 1.2 g | KIDNEY_TOTAL ([…], time 7 day): 2.4 g | KIDNEY_L ([…], time 14 day): 1.3 g | KIDNEY_R ([…], time 14 day): 1.3 g | KIDNEY_TOTAL ([…], time 14 day): 2.6 g | KIDNEY_L ([…], time 28 day): 1.4 g | KIDNEY_R ([…], time 28 day): 1.4 g | KIDNEY_TOTAL ([…], time 28 day): 2.8 g | LIVER ([…], time 7 day): 13.8 g | LIVER ([…], time 14 day): 13.9 g | LIVER ([…], time 28 day): 17 g | A/G ([…], time 7 day): 0.9 | ALP ([…], time 7 day): 1839.2 IU/L | ALT ([…], time 7 day): 44.4 IU/L | AST ([…], time 7 day): 69.4 IU/L | BUN ([…], time 7 day): 15.4 mg/dL | CRE ([…], time 7 day): 0.2 mg/dL | Ca ([…], time 7 day): 11.3 mg/dL | Cl ([…], time 7 day): 106.4 meq/L | DBIL ([…], time 7 day): 0.024 mg/dL | GLC ([…], time 7 day): 188.8 mg/dL | IP ([…], time 7 day): 7.5 mg/dL | K ([…], time 7 day): 3.9 meq/L | LDH ([…], time 7 day): 64.2 IU/L | Na ([…], time 7 day): 143.2 meq/L | PL ([…], time 7 day): 162.2 mg/dL | RALB ([…], time 7 day): 2.7 g/dL | TBIL ([…], time 7 day): 0.052 mg/dL | TC ([…], time 7 day): 79 mg/dL | TG ([…], time 7 day): 140.4 mg/dL | TP ([…], time 7 day): 5.9 g/dL | gamma-GTP ([…], time 7 day): 1.2 IU/L | A/G ([…], time 14 day): 0.8 | ALP ([…], time 14 day): 1466.2 IU/L | ALT ([…], time 14 day): 37.2 IU/L | AST ([…], time 14 day): 63.6 IU/L | BUN ([…], time 14 day): 17.2 mg/dL | CRE ([…], time 14 day): 0.2 mg/dL | Ca ([…], time 14 day): 11.1 mg/dL | Cl ([…], time 14 day): 107.2 meq/L | DBIL ([…], time 14 day): 0.024 mg/dL | GLC ([…], time 14 day): 187.6 mg/dL | IP ([…], time 14 day): 6.5 mg/dL | K ([…], time 14 day): 4.5 meq/L | LDH ([…], time 14 day): 59 IU/L | Na ([…], time 14 day): 143 meq/L | PL ([…], time 14 day): 151.6 mg/dL | RALB ([…], time 14 day): 2.7 g/dL | TBIL ([…], time 14 day): 0.05 mg/dL | TC ([…], time 14 day): 63.6 mg/dL | TG ([…], time 14 day): 189.6 mg/dL | TP ([…], time 14 day): 6 g/dL | gamma-GTP ([…], time 14 day): 1 IU/L | A/G ([…], time 28 day): 0.8 | ALP ([…], time 28 day): 1089.6 IU/L | ALT ([…], time 28 day): 36.4 IU/L | AST ([…], time 28 day): 60 IU/L | BUN ([…], time 28 day): 17 mg/dL | CRE ([…], time 28 day): 0.2 mg/dL | Ca ([…], time 28 day): 11 mg/dL | Cl ([…], time 28 day): 104.4 meq/L | DBIL ([…], time 28 day): 0.018 mg/dL | GLC ([…], time 28 day): 193.4 mg/dL | IP ([…], time 28 day): 6.2 mg/dL | K ([…], time 28 day): 3.7 meq/L | LDH ([…], time 28 day): 47.2 IU/L | Na ([…], time 28 day): 143.8 meq/L | PL ([…], time 28 day): 141.4 mg/dL | RALB ([…], time 28 day): 2.7 g/dL | TBIL ([…], time 28 day): 0.054 mg/dL | TC ([…], time 28 day): 66 mg/dL | TG ([…], time 28 day): 136.6 mg/dL | TP ([…], time 28 day): 6.3 g/dL | gamma-GTP ([…], time 28 day): 1 IU/L
